≈ marks a conversion by molar mass, not a printed value.
Key:
Type in all cases: functional
[1] = system: Staphylococcus epidermidis; test: Antibacterial activity against methicillin-resistant, coagulase-negative, MLS-resistant (inducible) Staphylococcus epidermidis E3 by broth microdilution method
[2] = system: Staphylococcus epidermidis; test: Antibacterial activity against methicillin-resistant, MLS-resistant (constitutive) Staphylococcus epidermidis E2 by broth microdilution method
[3] = system: Staphylococcus epidermidis; test: Antibacterial activity against methicillin-susceptible, MLS-resistant (inducible) Staphylococcus epidermidis E1 by broth microdilution method
[4] = system: Staphylococcus aureus; test: Antibacterial activity against methicillin-resistant, […], MLS-resistant (constitutive) Staphylococcus aureus PU 19 by broth microdilution method
[5] = system: Staphylococcus aureus; test: Antibacterial activity against methicillin-susceptible, MLS-resistant (inducible) Staphylococcus aureus PU 64 by broth microdilution method
[6] = system: Staphylococcus aureus; test: Antibacterial activity against methicillin-resistant, MLS-resistant (constitutive) Staphylococcus aureus PU 20 by broth microdilution method
[7] = system: Staphylococcus aureus; test: Antibacterial activity against methicillin-resistant, MLS-resistant (inducible) Staphylococcus aureus PU 32 by broth microdilution method
[8] = system: Staphylococcus aureus; test: Antibacterial activity against erythromycin-susceptible Staphylococcus aureus ATCC 29213 by broth microdilution method
[9] = system: Streptococcus pyogenes; test: Antibacterial activity against erythromycin-susceptible Streptococcus pyogenes A3 by broth microdilution method
[10] = system: Streptococcus pyogenes; test: Antibacterial activity against MLS-resistant (constitutive) Streptococcus pyogenes A2 by broth microdilution method
[11] = system: Streptococcus dysgalactiae; test: Antibacterial activity against erythromycin-resistant Streptococcus dysgalactiae A1 by broth microdilution method
[12] = system: Streptococcus pneumoniae; test: Antibacterial activity against MLS-resistant (constitutive), penicillin-susceptible Streptococcus pneumoniae PU27 by broth microdilution method
[13] = system: Streptococcus pneumoniae; test: Antibacterial activity against MLS-resistant (constitutive), penicillin-resistant Streptococcus pneumoniae PU11 by broth microdilution method
[14] = system: Streptococcus pneumoniae; test: Antibacterial activity against penicillin-susceptible Streptococcus pneumoniae PU09 harboring mef gene by broth microdilution method
[15] = system: Streptococcus pneumoniae; test: Antibacterial activity against erythromycin-susceptible Streptococcus pneumoniae ATCC 49619 by broth microdilution method
[16] = system: Staphylococcus epidermidis; test: Ratio of telithromycin MIC to compound MIC for methicillin-resistant, coagulase-negative, MLS-resistant (inducible) Staphylococcus epidermidis E3 by broth microdilution method
[17] = system: Staphylococcus aureus; test: Ratio of telithromycin MIC to compound MIC for methicillin-resistant, […], MLS-resistant (constitutive) Staphylococcus aureus PU 19 by broth microdilution method
[18] = system: Streptococcus pyogenes; test: Ratio of telithromycin MIC to compound MIC for MLS-resistant (constitutive) Streptococcus pyogenes A2 by broth microdilution method
[19] = system: Streptococcus dysgalactiae; test: Ratio of telithromycin MIC to compound MIC for erythromycin-resistant Streptococcus dysgalactiae A1 by broth microdilution method

SMILES | MIC [1] [µg/mL] | MIC [2] [µg/mL] | MIC [3] [µg/mL] | MIC [4] [µg/mL] | MIC [5] [µg/mL] | MIC [6] [µg/mL] | MIC [7] [µg/mL] | MIC [8] [µg/mL] | MIC [9] [µg/mL] | MIC [10] [µg/mL] | MIC [11] [µg/mL] | MIC [12] [µg/mL] | MIC [13] [µg/mL] | MIC [14] [µg/mL] | MIC [15] [µg/mL] | Ratio [16] | Ratio [17] | Ratio [18] | Ratio [19]
CC[C@H]1OC(=O)[C@H](C)[C@@H](O[C@H]2C[C@@](C)(OC)[C@@H](O)[C@H](C)O2)[C@H](C)[C@@H](O[C@@H]2O[C@H](C)C[C@H](N(C)C)[C@H]2O)[C@](C)(OC)C[C@@H](C)C(=O)[C@H](C)[C@@H](O)[C@]1(C)O [CLARITHROMYCIN] | > 256 | > 256 | > 256 | > 256 | > 256 | > 256 | > 256 | 0.5 (≈ 0.668 µM) | ≤ 0.008 | > 256 | 16 (≈ 21.4 µM) | > 256 | > 256 | > 256 | 0.032 (≈ 0.0428 µM) |  |  |  | 
CC[C@H]1OC(=O)[C@H](C)C(=O)[C@H](C)[C@@H](O[C@@H]2O[C@H](C)C[C@H](N(C)C)[C@H]2O)[C@](C)(OC)C[C@@H](C)/C(=N\OC/C=C/c2ccc(C(=O)c3ccccc3)s2)[C@H](C)[C@H]2OC(=O)O[C@@]21C | 64 (≈ 74.8 µM) | > 256 | 32 (≈ 37.4 µM) | > 256 |  |  | 16 (≈ 18.7 µM) | 16 (≈ 18.7 µM) | 2 (≈ 2.34 µM) | 64 (≈ 74.8 µM) | 4 (≈ 4.68 µM) |  | 64 (≈ 74.8 µM) | 4 (≈ 4.68 µM) | 2 (≈ 2.34 µM) |  |  |  | 
CC[C@H]1OC(=O)[C@H](C)C(=O)[C@H](C)[C@@H](O[C@@H]2O[C@H](C)C[C@H](N(C)C)[C@H]2O)[C@](C)(OC)C[C@@H](C)/C(=N\OC/C=C/c2ccc(-c3ccccn3)s2)[C@H](C)[C@H]2OC(=O)O[C@@]21C | 64 (≈ 77.3 µM) | > 256 | 32 (≈ 38.6 µM) | 128 (≈ 155 µM) |  |  | 8 (≈ 9.66 µM) | 8 (≈ 9.66 µM) | 0.5 (≈ 0.604 µM) | 64 (≈ 77.3 µM) | 4 (≈ 4.83 µM) |  | 64 (≈ 77.3 µM) | 4 (≈ 4.83 µM) | 0.5 (≈ 0.604 µM) |  |  |  | 
CC[C@H]1OC(=O)[C@H](C)C(=O)[C@H](C)[C@@H](O[C@@H]2O[C@H](C)C[C@H](N(C)C)[C@H]2O)[C@](C)(OC)C[C@@H](C)C(=O)[C@H](C)[C@H]2N(CCCCn3cnc(-c4cccnc4)c3)C(=O)O[C@]12C [TELITHROMYCIN] | 8 (≈ 9.85 µM) | > 256 | 1 (≈ 1.23 µM) | > 256 | 0.5 (≈ 0.616 µM) | > 256 | 1 (≈ 1.23 µM) | 0.25 (≈ 0.308 µM) | ≤ 0.008 | 128 (≈ 158 µM) | 2 (≈ 2.46 µM) | 0.125 (≈ 0.154 µM) | 4 (≈ 4.93 µM) | 0.125 (≈ 0.154 µM) | ≤ 0.008 |  |  |  | 
CC[C@H]1OC(=O)[C@H](C)[C@@H](O/C=C\Cc2cncnc2)[C@H](C)[C@@H](O[C@@H]2O[C@H](C)C[C@H](N(C)C)[C@H]2O)[C@](C)(OC)C[C@@H](C)/C(=N\OC/C=C/c2cnc3ccccc3c2)[C@H](C)[C@H]2OC(=O)O[C@@]21C | > 256 | > 256 | > 256 | > 256 | 32 (≈ 34.9 µM) | > 256 | > 256 | 32 (≈ 34.9 µM) | 2 (≈ 2.18 µM) | 64 (≈ 69.9 µM) | 16 (≈ 17.5 µM) | 64 (≈ 69.9 µM) | 128 (≈ 140 µM) | 32 (≈ 34.9 µM) | 2 (≈ 2.18 µM) |  |  |  | 
CC[C@H]1OC(=O)[C@H](C)[C@@H](OC(=O)Cc2ccccn2)[C@H](C)[C@@H](O[C@@H]2O[C@H](C)C[C@H](N(C)C)[C@H]2O)[C@](C)(OC)C[C@@H](C)/C(=N\OCC#Cc2cncc3ccccc23)[C@H](C)[C@H]2OC(=O)O[C@@]21C | > 256 | > 256 | > 256 | > 256 | 16 (≈ 17.5 µM) | > 256 | 32 (≈ 35 µM) | 32 (≈ 35 µM) | 8 (≈ 8.74 µM) | 32 (≈ 35 µM) | 8 (≈ 8.74 µM) | 32 (≈ 35 µM) | 32 (≈ 35 µM) | 8 (≈ 8.74 µM) | 1 (≈ 1.09 µM) |  |  |  | 
CC[C@H]1OC(=O)[C@H](C)[C@@H](O[C@H]2C[C@@](C)(OC)[C@@H](O)[C@H](C)O2)[C@H](C)[C@@H](O[C@@H]2O[C@H](C)C[C@H](N(C)C)[C@H]2O)[C@](C)(O)C[C@@H](C)CN(C)[C@H](C)[C@@H](O)[C@]1(C)O [AZITHROMYCIN] | > 256 | > 256 | > 256 | > 256 |  |  | > 256 | 2 (≈ 2.67 µM) | ≤ 0.008 | > 256 | 64 (≈ 85.4 µM) |  | > 256 | 64 (≈ 85.4 µM) | 0.25 (≈ 0.334 µM) |  |  |  | 
CC[C@H]1OC(=O)[C@H](C)[C@@H](OC(=O)Cc2ccccn2)[C@H](C)[C@@H](O[C@@H]2O[C@H](C)C[C@H](N(C)C)[C@H]2O)[C@](C)(OC)C[C@@H](C)/C(=N\OC/C=C/c2cnc3ccccc3c2)[C@H](C)[C@H]2OC(=O)O[C@@]21C | 32 (≈ 34.9 µM) | > 256 | 32 (≈ 34.9 µM) | > 256 | 32 (≈ 34.9 µM) | > 256 | 64 (≈ 69.8 µM) | 32 (≈ 34.9 µM) | 0.5 (≈ 0.545 µM) | 32 (≈ 34.9 µM) | 8 (≈ 8.72 µM) | 32 (≈ 34.9 µM) | 64 (≈ 69.8 µM) | 16 (≈ 17.4 µM) | 1 (≈ 1.09 µM) |  |  |  | 
CC[C@H]1OC(=O)[C@H](C)[C@@H](OC(=O)Cc2cccnc2)[C@H](C)[C@@H](O[C@@H]2O[C@H](C)C[C@H](N(C)C)[C@H]2O)[C@](C)(OC)C[C@@H](C)/C(=N\OCC#Cc2cncc3ccccc23)[C@H](C)[C@H]2OC(=O)O[C@@]21C | > 256 | > 256 | > 256 | > 256 | 32 (≈ 35 µM) | > 256 | 64 (≈ 69.9 µM) | 32 (≈ 35 µM) | 1 (≈ 1.09 µM) | 64 (≈ 69.9 µM) | 8 (≈ 8.74 µM) | 64 (≈ 69.9 µM) | 64 (≈ 69.9 µM) | 8 (≈ 8.74 µM) | 1 (≈ 1.09 µM) |  |  |  | 
CC[C@H]1OC(=O)[C@H](C)[C@@H](OC(=O)Cc2cccnc2)[C@H](C)[C@@H](O[C@@H]2O[C@H](C)C[C@H](N(C)C)[C@H]2O)[C@](C)(OC)C[C@@H](C)/C(=N\OC/C=C/c2cnc3ccccc3c2)[C@H](C)[C@H]2OC(=O)O[C@@]21C | > 256 | > 256 | > 256 | > 256 | 32 (≈ 34.9 µM) | > 256 | 64 (≈ 69.8 µM) | 64 (≈ 69.8 µM) | 1 (≈ 1.09 µM) | 128 (≈ 140 µM) | 16 (≈ 17.4 µM) | 64 (≈ 69.8 µM) | 128 (≈ 140 µM) | 8 (≈ 8.72 µM) | 2 (≈ 2.18 µM) |  |  |  | 
CC[C@H]1OC(=O)[C@H](C)C(=O)[C@H](C)[C@@H](O[C@@H]2O[C@H](C)C[C@H](N(C)C)[C@H]2O)[C@](C)(OC)C[C@@H](C)/C(=N\OC/C=C/c2ccc(-c3cccs3)cc2)[C@H](C)[C@H]2OC(=O)O[C@@]21C | 64 (≈ 77.4 µM) | 256 (≈ 310 µM) | 64 (≈ 77.4 µM) | 64 (≈ 77.4 µM) |  |  | 64 (≈ 77.4 µM) | 32 (≈ 38.7 µM) | 1 (≈ 1.21 µM) | 32 (≈ 38.7 µM) | 16 (≈ 19.3 µM) |  | 64 (≈ 77.4 µM) | 16 (≈ 19.3 µM) | 2 (≈ 2.42 µM) |  |  |  | 
CC[C@H]1OC(=O)[C@H](C)[C@@H](O)[C@H](C)[C@@H](O[C@@H]2O[C@H](C)C[C@H](N(C)C)[C@H]2O)[C@](C)(OC)C[C@@H](C)/C(=N\OCCCc2cncc3ccccc23)[C@H](C)[C@H]2OC(=O)O[C@@]21C | > 256 | > 256 | > 256 | > 256 | 256 (≈ 320 µM) | > 256 | > 256 | > 256 | 4 (≈ 5 µM) | 32 (≈ 40 µM) | 16 (≈ 20 µM) | 32 (≈ 40 µM) | 32 (≈ 40 µM) | 8 (≈ 10 µM) | 8 (≈ 10 µM) |  |  |  | 
CC[C@H]1OC(=O)[C@H](C)C(=O)[C@H](C)[C@@H](O[C@@H]2O[C@H](C)C[C@H](N(C)C)[C@H]2O)[C@](C)(OC)C[C@@H](C)/C(=N\OC/C=C/c2cnc3ccccc3c2)[C@H](C)[C@H]2OC(=O)O[C@@]21C | 2 (≈ 2.51 µM) | 128 (≈ 161 µM) | 8 (≈ 10.1 µM) | 64 (≈ 80.4 µM) |  |  | 1 (≈ 1.26 µM) | 0.5 (≈ 0.628 µM) | 0.032 (≈ 0.0402 µM) | 32 (≈ 40.2 µM) | 0.5 (≈ 0.628 µM) |  | 64 (≈ 80.4 µM) | 1 (≈ 1.26 µM) | 0.125 (≈ 0.157 µM) | 4 | 4 | 4 | 4
CC[C@H]1OC(=O)[C@H](C)[C@@H](O)[C@H](C)[C@@H](O[C@@H]2O[C@H](C)C[C@H](N(C)C)[C@H]2O)[C@](C)(OC)C[C@@H](C)/C(=N\OC/C=C/c2cnc3ccccc3c2)[C@H](C)[C@H]2OC(=O)O[C@@]21C | > 256 | > 256 | 128 (≈ 160 µM) | > 256 | 256 (≈ 321 µM) | > 256 | 128 (≈ 160 µM) | 128 (≈ 160 µM) | 8 (≈ 10 µM) | 64 (≈ 80.2 µM) | 16 (≈ 20.1 µM) | 64 (≈ 80.2 µM) | 64 (≈ 80.2 µM) | 4 (≈ 5.01 µM) | 4 (≈ 5.01 µM) |  |  |  | 

— ChEMBL document CHEMBL2331130, “Synthesis and antibacterial activity of 9-oxime ether non-ketolides, and novel binding mode of alkylides with bacterial rRNA” (2013)
